Data from ChEMBL document CHEMBL3885861, “Open TG-GATES”.

Species on record: Rattus norvegicus
Test: Open TG-GATES - Regimen: Daily Repeat
Format: toxicity, organism-based, Sprague-Dawley
Parameters: regimen Daily Repeat, gender Male, age 6 weeks
Settings: in vivo, po, route gavage; for APTT / Bas / Eos / Fbg / Hb / Ht / Lym / MCH / MCHC / MCV / Mono / Neu / PT / Plat / RBC / Ret / WBC: tissue Blood; for KIDNEY_L / KIDNEY_R / KIDNEY_TOTAL: tissue Kidney; for LIVER: tissue Liver; for A/G / ALP / ALT / AST / BUN / CRE / Ca / Cl / DBIL / GLC / IP / K / LDH / Na / PL / RALB / TBIL / TC / TG / TP / gamma-GTP: tissue Plasma
[1] = 30 mg/kg, 72 h, dose level Middle, time 3 day
[2] = 30 mg/kg, […], dose level Middle, time 7 day
[3] = 30 mg/kg, […], dose level Middle, time 14 day
[4] = 30 mg/kg, […], dose level Middle, time 28 day
[5] = 100 mg/kg, 72 h, dose level High, time 3 day
[6] = 100 mg/kg, […], dose level High, time 7 day
[7] = 100 mg/kg, […], dose level High, time 14 day
[8] = 100 mg/kg, […], dose level High, time 28 day

CC1=C(/C=C/C(C)=C/C=C/C(C)=C/CO)C(C)(C)CCC1 [RETINOL]
TERMINAL_BW [1]: 230.8 g
APTT [1]: 23.3 s
Bas [1]: 0%
Eos [1]: 0.8%
Fbg [1]: 299 mg/dL
Hb [1]: 13.5 g/dL
Ht [1]: 39%
Lym [1]: 79.4%
MCH [1]: 21.5 pg
MCHC [1]: 34.7%
MCV [1]: 62 fL
Mono [1]: 2.4%
Neu [1]: 16.6%
PT [1]: 16.8 s
Plat [1]: 120.5 x10_4/uL
RBC [1]: 629.4 x10_4/ul
Ret [1]: 5.6%
WBC [1]: 103.8 x10_2/uL
KIDNEY_L [1]: 1 g
KIDNEY_R [1]: 0.9 g
KIDNEY_TOTAL [1]: 1.9 g
LIVER [1]: 11.2 g
A/G [1]: 1.3
ALP [1]: 2028 IU/L
ALT [1]: 48.8 IU/L
AST [1]: 78.6 IU/L
BUN [1]: 19.4 mg/dL
CRE [1]: 0.2 mg/dL
Ca [1]: 11 mg/dL
Cl [1]: 106.8 meq/L
DBIL [1]: 0.002 mg/dL
GLC [1]: 188.6 mg/dL
IP [1]: 6.4 mg/dL
K [1]: 4.3 meq/L
LDH [1]: 235.6 IU/L
Na [1]: 141.2 meq/L
PL [1]: 166.4 mg/dL
RALB [1]: 3.2 g/dL
TBIL [1]: 0.012 mg/dL
TC [1]: 78.8 mg/dL
TG [1]: 150 mg/dL
TP [1]: 5.7 g/dL
gamma-GTP [1]: 1.6 IU/L
TERMINAL_BW [2]: 256.2 g
TERMINAL_BW [3]: 297 g
TERMINAL_BW [4]: 360.9 g
APTT [2]: 26.4 s
Bas [2]: 0%
Eos [2]: 0.8%
Fbg [2]: 275.2 mg/dL
Hb [2]: 13.7 g/dL
Ht [2]: 39.4%
Lym [2]: 83.6%
MCH [2]: 20.8 pg
MCHC [2]: 34.8%
MCV [2]: 59.8 fL
Mono [2]: 1.6%
Neu [2]: 13.2%
PT [2]: 15.8 s
Plat [2]: 125.2 x10_4/uL
RBC [2]: 660.2 x10_4/ul
Ret [2]: 4.6%
WBC [2]: 81.8 x10_2/uL
APTT [3]: 28.5 s
Bas [3]: 0%
Eos [3]: 0.8%
Fbg [3]: 290.2 mg/dL
Hb [3]: 13.4 g/dL
Ht [3]: 38.1%
Lym [3]: 76.2%
MCH [3]: 20 pg
MCHC [3]: 35.1%
MCV [3]: 56.9 fL
Mono [3]: 2.6%
Neu [3]: 19.8%
PT [3]: 15.9 s
Plat [3]: 103.9 x10_4/uL
RBC [3]: 671.4 x10_4/ul
Ret [3]: 3.9%
WBC [3]: 101 x10_2/uL
APTT [4]: 37.3 s
Bas [4]: 0%
Eos [4]: 0.8%
Fbg [4]: 283 mg/dL
Hb [4]: 13.8 g/dL
Ht [4]: 38.6%
Lym [4]: 76.4%
MCH [4]: 19.6 pg
MCHC [4]: 35.7%
MCV [4]: 54.9 fL
Mono [4]: 2%
Neu [4]: 19.8%
PT [4]: 17.3 s
Plat [4]: 116.5 x10_4/uL
RBC [4]: 704 x10_4/ul
Ret [4]: 2.7%
WBC [4]: 133 x10_2/uL
KIDNEY_L [2]: 1.1 g
KIDNEY_R [2]: 1.1 g
KIDNEY_TOTAL [2]: 2.2 g
KIDNEY_L [3]: 1.2 g
KIDNEY_R [3]: 1.2 g
KIDNEY_TOTAL [3]: 2.4 g
KIDNEY_L [4]: 1.4 g
KIDNEY_R [4]: 1.4 g
KIDNEY_TOTAL [4]: 2.8 g
LIVER [2]: 11.7 g
LIVER [3]: 14.1 g
LIVER [4]: 15.1 g
A/G [2]: 1.2
ALP [2]: 1900.8 IU/L
ALT [2]: 48.4 IU/L
AST [2]: 82 IU/L
BUN [2]: 17.2 mg/dL
CRE [2]: 0.2 mg/dL
Ca [2]: 10.5 mg/dL
Cl [2]: 108.8 meq/L
DBIL [2]: 0.002 mg/dL
GLC [2]: 191 mg/dL
IP [2]: 6.6 mg/dL
K [2]: 4.4 meq/L
LDH [2]: 208.2 IU/L
Na [2]: 143 meq/L
PL [2]: 148.6 mg/dL
RALB [2]: 3 g/dL
TBIL [2]: 0.002 mg/dL
TC [2]: 71.4 mg/dL
TG [2]: 175.2 mg/dL
TP [2]: 5.5 g/dL
gamma-GTP [2]: 1 IU/L
A/G [3]: 1.2
ALP [3]: 1990.8 IU/L
ALT [3]: 49.4 IU/L
AST [3]: 83.8 IU/L
BUN [3]: 17.4 mg/dL
CRE [3]: 0.2 mg/dL
Ca [3]: 10.5 mg/dL
Cl [3]: 108.2 meq/L
DBIL [3]: 0 mg/dL
GLC [3]: 198.6 mg/dL
IP [3]: 5.9 mg/dL
K [3]: 4.2 meq/L
LDH [3]: 269 IU/L
Na [3]: 142.8 meq/L
PL [3]: 172.6 mg/dL
RALB [3]: 3 g/dL
TBIL [3]: 0.002 mg/dL
TC [3]: 74.4 mg/dL
TG [3]: 312 mg/dL
TP [3]: 5.6 g/dL
gamma-GTP [3]: 1.2 IU/L
A/G [4]: 1
ALP [4]: 1673.8 IU/L
ALT [4]: 56.6 IU/L
AST [4]: 79.8 IU/L
BUN [4]: 16.2 mg/dL
CRE [4]: 0.2 mg/dL
Ca [4]: 10.1 mg/dL
Cl [4]: 108 meq/L
DBIL [4]: 0 mg/dL
GLC [4]: 183.4 mg/dL
IP [4]: 6.2 mg/dL
K [4]: 4.2 meq/L
LDH [4]: 138.4 IU/L
Na [4]: 141 meq/L
PL [4]: 145 mg/dL
RALB [4]: 2.9 g/dL
TBIL [4]: 0.026 mg/dL
TC [4]: 66.6 mg/dL
TG [4]: 203.4 mg/dL
TP [4]: 5.7 g/dL
gamma-GTP [4]: 1.2 IU/L
TERMINAL_BW [5]: 214.3 g
APTT [5]: 29 s
Bas [5]: 0%
Eos [5]: 0.4%
Fbg [5]: 274.4 mg/dL
Hb [5]: 13.8 g/dL
Ht [5]: 39.8%
Lym [5]: 74.4%
MCH [5]: 21 pg
MCHC [5]: 34.6%
MCV [5]: 60.9 fL
Mono [5]: 3.4%
Neu [5]: 20.6%
PT [5]: 18.1 s
Plat [5]: 112.8 x10_4/uL
RBC [5]: 654.8 x10_4/ul
Ret [5]: 4.3%
WBC [5]: 95.3 x10_2/uL
KIDNEY_L [5]: 1 g
KIDNEY_R [5]: 1 g
KIDNEY_TOTAL [5]: 2 g
LIVER [5]: 10.3 g
A/G [5]: 1.3
ALP [5]: 2174.2 IU/L
ALT [5]: 52.2 IU/L
AST [5]: 83.8 IU/L
BUN [5]: 17 mg/dL
CRE [5]: 0.1 mg/dL
Ca [5]: 11.1 mg/dL
Cl [5]: 107 meq/L
DBIL [5]: 0.004 mg/dL
GLC [5]: 192.2 mg/dL
IP [5]: 7.9 mg/dL
K [5]: 4.3 meq/L
LDH [5]: 241 IU/L
Na [5]: 141.8 meq/L
PL [5]: 151.2 mg/dL
RALB [5]: 3.1 g/dL
TBIL [5]: 0.01 mg/dL
TC [5]: 70.6 mg/dL
TG [5]: 196.2 mg/dL
TP [5]: 5.6 g/dL
gamma-GTP [5]: 1.4 IU/L
TERMINAL_BW [6]: 231.5 g
TERMINAL_BW [7]: 234.2 g
TERMINAL_BW [8]: 190.7 g
APTT [6]: 32.7 s
Bas [6]: 0%
Eos [6]: 0.2%
Fbg [6]: 293.8 mg/dL
Hb [6]: 13.6 g/dL
Ht [6]: 38.5%
Lym [6]: 73.2%
MCH [6]: 21.1 pg
MCHC [6]: 35.2%
MCV [6]: 60 fL
Mono [6]: 2.6%
Neu [6]: 22.4%
PT [6]: 16.1 s
Plat [6]: 114.4 x10_4/uL
RBC [6]: 642.2 x10_4/ul
Ret [6]: 2%
WBC [6]: 102.2 x10_2/uL
APTT [7]: 43.8 s
Bas [7]: 0%
Eos [7]: 0.4%
Fbg [7]: 373.8 mg/dL
Hb [7]: 13 g/dL
Ht [7]: 36.5%
Lym [7]: 62.8%
MCH [7]: 20.2 pg
MCHC [7]: 35.6%
MCV [7]: 56.6 fL
Mono [7]: 4.2%
Neu [7]: 31.8%
PT [7]: 18.5 s
Plat [7]: 127.2 x10_4/uL
RBC [7]: 644.8 x10_4/ul
Ret [7]: 1.3%
WBC [7]: 139.1 x10_2/uL
APTT [8]: 37 s
Bas [8]: 0%
Eos [8]: 0.5%
Fbg [8]: 294 mg/dL
Hb [8]: 12.1 g/dL
Ht [8]: 34.3%
Lym [8]: 60.5%
MCH [8]: 17.9 pg
MCHC [8]: 35.2%
MCV [8]: 50.8 fL
Mono [8]: 5%
Neu [8]: 33.5%
PT [8]: 17.8 s
Plat [8]: 144.9 x10_4/uL
RBC [8]: 673 x10_4/ul
Ret [8]: 2.9%
WBC [8]: 160.4 x10_2/uL
KIDNEY_L [6]: 1.1 g
KIDNEY_R [6]: 1.1 g
KIDNEY_TOTAL [6]: 2.2 g
KIDNEY_L [7]: 1.1 g
KIDNEY_R [7]: 1.1 g
KIDNEY_TOTAL [7]: 2.2 g
KIDNEY_L [8]: 1 g
KIDNEY_R [8]: 1.1 g
KIDNEY_TOTAL [8]: 2.1 g
LIVER [6]: 11.9 g
LIVER [7]: 11.2 g
LIVER [8]: 9.5 g
A/G [6]: 1
ALP [6]: 2413.2 IU/L
ALT [6]: 47.8 IU/L
AST [6]: 91.4 IU/L
BUN [6]: 16.8 mg/dL
CRE [6]: 0.2 mg/dL
Ca [6]: 11.5 mg/dL
Cl [6]: 104.8 meq/L
DBIL [6]: 0 mg/dL
GLC [6]: 182.6 mg/dL
IP [6]: 8.9 mg/dL
K [6]: 4.3 meq/L
LDH [6]: 266 IU/L
Na [6]: 142.6 meq/L
PL [6]: 162.2 mg/dL
RALB [6]: 2.8 g/dL
TBIL [6]: 0.008 mg/dL
TC [6]: 76.4 mg/dL
TG [6]: 306.2 mg/dL
TP [6]: 5.6 g/dL
gamma-GTP [6]: 1.4 IU/L
A/G [7]: 0.7
ALP [7]: 1719.6 IU/L
ALT [7]: 43.8 IU/L
AST [7]: 99.6 IU/L
BUN [7]: 13.6 mg/dL
CRE [7]: 0.2 mg/dL
Ca [7]: 11.3 mg/dL
Cl [7]: 106.2 meq/L
DBIL [7]: 0 mg/dL
GLC [7]: 186.6 mg/dL
IP [7]: 7.7 mg/dL
K [7]: 4.1 meq/L
LDH [7]: 212.8 IU/L
Na [7]: 141.8 meq/L
PL [7]: 136.2 mg/dL
RALB [7]: 2.1 g/dL
TBIL [7]: 0.002 mg/dL
TC [7]: 67.8 mg/dL
TG [7]: 151.8 mg/dL
TP [7]: 5 g/dL
gamma-GTP [7]: 1.2 IU/L
A/G [8]: 0.6
ALP [8]: 1327.7 IU/L
ALT [8]: 55.3 IU/L
AST [8]: 166.3 IU/L
BUN [8]: 52 mg/dL
CRE [8]: 0.3 mg/dL
Ca [8]: 10.5 mg/dL
Cl [8]: 113 meq/L
DBIL [8]: 0.01 mg/dL
GLC [8]: 225 mg/dL
IP [8]: 9.1 mg/dL
K [8]: 4.1 meq/L
LDH [8]: 685.3 IU/L
Na [8]: 148.3 meq/L
PL [8]: 85 mg/dL
RALB [8]: 1.7 g/dL
TBIL [8]: 0.0233 mg/dL
TC [8]: 43.7 mg/dL
TG [8]: 57.3 mg/dL
TP [8]: 4.4 g/dL
gamma-GTP [8]: 2.3 IU/L
